Source: patent US20250188033A1, “INHIBITOR OF REPLICATION PROTEIN A1 OF TRYPANOSOMA BRUCEI AND METHOD OF USE THEREOF” (Research Foundation of the City University of New York, published 2025)
Read-outs that look alike come from different tables or passages of the source.

Tests used:
[1] = system: Trypanosoma brucei; experiment: ALAMARBLUE cell viability / growth assay of T. brucei cells; type: cell-based
Description: To determine cell growth rate, WT and two TbRPA1 RNAi KD strains (KD1 and KD2) were seeded at a density of 1×10^5 cells/ml and cultured with or without tetracycline for the induction of RNAi. Cells were counted every 12 hours for 2 days. To determine the viability of TbRPA1-depleted cells, ALAMARBLUE® assay (Thermo Fisher, an established colorimetric technique that detects metabolically active cells) was used. Cells from each time point were incubated with ALAMARBLUE® dye for 4-6 hours and percentage of live cells was determined by measuring resorufin converted from resazurin by reducing environment of live cells. Synergy H1 microplate reader (BioTek) was used with 560/590 nm (excitation/emission) filter settings and Relative Fluorescence Unit (RFU) values were obtained. The percentage of viable cells were calculated from the RFU values.
The initial assessment of JC-229's inhibitory effect on T. brucei cell growth was performed at 50 μM concentration. Trypanosome cells were seeded at 1×10^3 cells/ml density in 180 μl in a 96-well culture plate in triplicate. These cells were incubated with 50 μM JC-229 for 24, 48, and 72 hours. DMSO was used as a vehicle control at 0.0075%. JC-229-treated culture and control cultures were analyzed with the ALAMARBLUE® dye as described above.
To obtain the EC50 value of JC-229, T. brucei cells were seeded at 1×10^3 cells/ml density in 180 μl in a 96-well culture plate in triplicate. These cells were incubated for 72 hours with increasing concentrations of JC-229, (0.5 μM to 50 μM) and cell viability was determined using the ALAMARBLUE® dye as described above.
Trypanosoma brucei cytotoxicity of JC-229 and analogs were measured using ALAMARBLUE® assay (Rampersad, S. N. Multiple applications of ALAMARBLUE® as an indicator of metabolic function and cellular health in cell viability bioassays. Sensors (Basel) 12, 12347-12360 (2012). Trypanosome cells were seeded at 1×10^3 cells/ml density in 180 μl in a 96-well culture plate in triplicate. These cells were incubated with indicated concentration of JC compounds for 72 hours. DMSO was used as a vehicle control at 0.0075%. JC compound-treated cultures were then incubated with ALAMARBLUE® dye for 4-6 hours and percentage of live cells was determined using Synergy H1 microplate reader (BioTek) with 560/590 nm (excitation/emission) filter settings and Relative Fluorescence Unit (RFU) values were obtained. The percentage of viable cells were calculated from the RFU values by normalizing to DMSO treated control. In one embodiment, the inhibitor is characterized in that it provides at least 50%, at least 80% or at least 90% inhibition at a concentration of 5 μM when tested in accordance with the above conditions.

[2] = system: HEK293 cells; experiment: ALAMARBLUE cell viability assay of human cells (HEK293); type: cell-based
Description: (§1) Human cell lines, HeLa and HEK293 were maintained in Dulbecco's modified MEM (D-MEM, GIBCO) supplemented with 10% fetal bovine serum (GIBCO) at 37° C. with 5% CO2.
(§2) To determine the inhibitory effect of JC-229 on human cells, HeLa and HEK293 cells were suspended in 180 μl D-MEM with 10% FBS and plated at a density of 2×10^4 cells/ml in triplicate. Cells were adhered overnight, and the medium was replaced, and cells were then incubated for 72 hours with increasing concentrations of JC-229 (0.5 μM to 50 μM) and cell viability was determined using the ALAMARBLUE® dye as described above. Percent viability was plotted using GraphPad Prism software. […] The EC50 values were estimated using the concentration of JC-229 that cause 50% reduction of cell viability (inhibitor vs. normalized response, variable slope).

[3] = system: HeLa cells; experiment: ALAMARBLUE cell viability assay of human cells (HeLa); type: cell-based
Description: as §1, §2

[4] = system: T. brucei cells; experiment: Cell-cycle analysis by PI staining and flow cytometry; type: cell-based, Trypanosoma brucei; settings: 10 μM
Description: (§3) Without wishing to be bound to any particular theory, if JC-229 indeed binds and inhibits the functions of TbRPA1, as predicted from the structural model, JC-229-treated trypanosome cells should show similar phenotypes to TbRPA1-depleted cells without affecting TbRPA1 protein levels. Wild-type T. brucei cells was treated with 10 μM JC-229 for 48 hours and the cell-cycle profile and efficiency of DNA synthesis was monitored. TbRPA1, γH2A, VSG3, and Tubulin protein levels were also monitored (FIG. 3A, FIG. 3B, FIG. 3C and FIG. 3D).
About 10 million cells were collected after tetracycline induction or after JC-229 treatment. Cells were fixed with ice-cold 70% ethanol and incubated with 50 μg/ml PI (Sigma-Aldrich) and 200 μg/ml RNase A (Sigma-Aldrich) in 1×PBS (Corning) at 37° C. for 30 min in the dark. Samples were analyzed by flow cytometry (FACSVia, BD Biosciences) and FLOWJO®.

[5] = system: T. brucei cells; experiment: Immunoblotting of TbRPA1, γH2A and VSG3 protein levels; type: cell-based, Trypanosoma brucei; settings: 10 μM; for fold increase in the levels of γH2A: relative to untreated, normalized to tubulin
Description: as §3
Cells were harvested at indicated time points and suspended in Laemmli buffer (Bio-Rad) at 0.25 million cells per μl. Denatured proteins from whole cells were separated on a 4-20% gradient SDS-PAGE gel (BioRAD) and transferred to nitrocellulose membrane (GE Healthcare). The membranes were probed with polyclonal antibodies against TbRPA1 (a gift from Bibo Li laboratory) or γH2A (generated by ABclonal for this study), or monoclonal mouse antibodies against VSG3 (Antibody and Bioresource Core facility, MSKCC) or tubulin (Sigma) in 1× PBS with 0.1% Tween 20 and 1% milk (BioRAD) at 4° C. overnight. The membranes were then incubated with secondary antibodies conjugated with Horseradish Peroxidase (HRP) (GE healthcare) for the detection of corresponding proteins using chemiluminescence (Hyglo from Denville Scientific, ChemiDoc Imaging System from BioRAD).

[6] = T. brucei, 2 μM, 72 hours, normalized to DMSO control
[7] = T. brucei, 10 μM, 72 hours, normalized to DMSO control
[8] = T. brucei, 5 μM, 72 hours, normalized to DMSO control

| Structure (SMILES) | % Inhibition @2 μM [1, 6] | % Inhibition @10 μM [1, 7] | % Inhibition @5 μM [1, 8] | other results |
| --- | --- | --- | --- | --- |
| Cc1ccc(C(=O)Nc2ccc(Cl)c(Cl)c2)cc1S(=O)(=O)Nc1ccc(Cl)c(Cl)c1 [JC-229, N-(3,4-dichlorophenyl)-3-(N-(3,4-dichlorophenyl)sulfamoyl)-4-methylbenzamide] |  |  |  | EC50 ([1]; Trypanosoma brucei, 72 h, read-out: EC50 (T. brucei viability), T. brucei, 0.5 to 50 μM, 72 hours): 6.6 µM; inhibition at 2 µM ([1]; Trypanosoma brucei, T. brucei, 2 μM, 72 hours, normalized to DMSO control): 24%; inhibition at 5 µM ([1]; Trypanosoma brucei, T. brucei, 5 μM, 72 hours, normalized to DMSO control): 76%; inhibition at 10 µM ([1]; Trypanosoma brucei, T. brucei, 10 μM, 72 hours, normalized to DMSO control): 100%; EC50 ([1]; read-out: EC50 (T. brucei viability), T. brucei, 0.5 to 50 μM, 72 hours): 6.5 µM; EC50 ([2]; HEK293, 0.5 to 50 μM, 72 hours, estimated, curve did not reach bottom plateau): 18.4 µM; inhibition at 6.5 µM ([2]; HEK293, at 6.5 μM (EC50 to T. brucei)): < 20%; inhibition at 50 µM ([2]; HEK293, at 50 μM, the maximum concentration): < 100%; EC50 ([3]; 0.5 to 50 μM, 72 hours, estimated, curve did not reach bottom plateau): 32.1 µM; inhibition at 6.5 µM ([3]; at 6.5 μM (EC50 to T. brucei)): < 20%; inhibition at 50 µM ([3]; at 50 μM, the maximum concentration): < 100%; sub-G1 population ([4]; 32-hour time point): ~45%; cells that lost the bulk of their DNA ([4]; by 48 hours): ~97%; fold increase in the levels of γH2A ([5]; 16 hours): approximately 5 fold; fold increase in VSG3 protein levels ([5]; 24 hours): ~3 fold; fold increase in the levels of γH2A ([5]; 24 hours): ~7 fold |
| Cc1ccc(C(=O)Nc2ccc(Cl)c(Cl)c2)cc1S(=O)(=O)NC(Cc1ccccc1)C(N)=O (stereo not drawn) [JC-869] | −34% | 30% |  |  |
| Cc1ccc(C(=O)Nc2ccc(Cl)c(Cl)c2)cc1S(=O)(=O)N1CCC(NC(=S)Nc2cccc(C(F)(F)F)c2)CC1 [JC-1017] | 100% |  | 100% |  |
| Cc1ccc(C(=O)Nc2ccc(Cl)c(Cl)c2)cc1S(=O)(=O)Nc1nc2ccccc2[nH]1 [JC-873] | −4% | 100% | 1% |  |
| Cc1ccc(C(=O)Nc2ccc(Cl)c(Cl)c2)cc1S(=O)(=O)N1CCC(NS(=O)(=O)c2ccc(Br)cc2)CC1 [JC-1014] | 100% |  | 100% |  |
| Cc1ccc(C(=O)Nc2ccc(Cl)c(Cl)c2)cc1S(=O)(=O)N1CCC(NS(=O)(=O)c2ccc(Br)cc2C(F)(F)F)CC1 [JC-1011] | 63% |  | 101% |  |
| Cc1ccc(C(=O)Nc2ccc(Cl)c(Cl)c2)cc1S(=O)(=O)NCCCNC(=O)c1ccccc1 [JC-935] | 3% | 19% |  |  |
| Cc1ccc(C(=O)Nc2ccc(Cl)c(Cl)c2)cc1S(=O)(=O)NCCN(C)C [JC-871] | −3% | 79% |  |  |
| Cc1ccc(C(=O)Nc2ccc(Cl)c(Cl)c2)cc1S(=O)(=O)NCCNC(=S)Nc1ccccc1F [JC-1001] | 49% |  | 66% |  |
| Cc1ccc(C(=O)Nc2ccc(Cl)c(Cl)c2)cc1S(=O)(=O)NCc1nc2ccccc2[nH]1.O=C(O)C(F)(F)F [JC-905] | 8% | 10% |  |  |
| Cc1ccc(C(=O)Nc2ccc(Cl)c(Cl)c2)cc1S(=O)(=O)Nc1cc[nH]n1 [JC-902] | 14% | 56% |  |  |
| COc1ccc(NC(=S)NCCNS(=O)(=O)c2cc(C(=O)Nc3ccc(Cl)c(Cl)c3)ccc2C)cc1 [JC-999] | −7% |  | −6% |  |
| Cc1ccc(C(=O)Nc2ccc(Cl)c(Cl)c2)cc1S(=O)(=O)C1CCCC(N)C1 (stereo not drawn) [JC-955] | 25% |  | 100% |  |
| Cc1ccc(C(=O)Nc2ccc(Cl)c(Cl)c2)cc1S(=O)(=O)N1CCCC(NC(=O)c2ccccc2)C1 (stereo not drawn) [JC-931] | 3% | 100% | 98.5% |  |
| Cc1ccc(C(=O)Nc2ccc(Cl)c(Cl)c2)cc1S(=O)(=O)NCCNC(=O)OC(C)(C)C [JC-917] | −14% | 73% |  |  |
| Cc1ccc(C(=O)Nc2ccc(Cl)c(Cl)c2)cc1S(=O)(=O)N1CCC(NC(=O)Cc2ccccc2)CC1 [JC-967] | 15% |  | −24% |  |
| O=C(Nc1ccc(Cl)c(Cl)c1)c1ccc(O)c(S(=O)(=O)Nc2ccc(Cl)c(Cl)c2)c1 [JC-907] | 12% | 5% |  |  |
| Cc1ccc(C(=O)Nc2ccc(Cl)c(Cl)c2)cc1S(=O)(=O)N1CCC(NS(C)(=O)=O)CC1 [JC-969] | 18% |  | −4% |  |
| Cc1cc(NS(=O)(=O)c2cc(C(=O)Nc3ccc(Cl)c(Cl)c3)ccc2C)n[nH]1 [JC-894] | −4% | 2% |  |  |
| Cc1ccc(C(=O)Nc2ccc(Cl)c(Cl)c2)cc1S(=O)(=O)Nc1cccc([N+](=O)[O-])c1N [JC-899] | 3% | 14% |  |  |
| Cc1ccc(C(=O)Nc2ccc(Cl)c(Cl)c2)cc1S(=O)(=O)NCCCCCO [JC-897] | 0% | 36% |  |  |
| Cc1ccc(C(=O)Nc2ccc(Cl)c(Cl)c2)cc1S(=O)(=O)N1CCCC(NC(=S)Nc2ccc(Cl)c(Cl)c2)C1 (stereo not drawn) [JC-1007] | 100% |  | 101% |  |
| Cc1ccc(C(=O)Nc2ccc(Cl)c(Cl)c2)cc1S(=O)(=O)N1CCCC(NC(=O)Cc2ccccc2)C1 (stereo not drawn) [JC-930] | 4% | 100% | 99.7% |  |
| CCOc1ccc2cc(C3CC(c4ccc(Br)cc4)=NN3C(=O)CCC(=O)O)c(Cl)nc2c1 (stereo not drawn) [TDRL-505, reference compound] |  |  |  | effect on T. brucei proliferation ([1]; even at 60 μM): no effect |
| Cc1ccc(C(=O)Nc2ccc(Cl)c(Cl)c2)cc1S(=O)(=O)N1CCC(NC(=O)OC(C)(C)C)CC1 [JC-896] | 17% | 92% | 69.4% |  |
| Cc1ccc(C(=O)Nc2ccc(Cl)c(Cl)c2)cc1S(=O)(=O)NCCNS(=O)(=O)c1ccc(CBr)cc1 [JC-993] | 76% |  | 100% |  |
